We go through two molecules from ChEMBL document CHEMBL5726339, “Ether compounds for treatment of complement mediated disorders” (2017).

The target of this assay is Complement factor D (Homo sapiens, UniProt P00746). In words: Enzyme Assay: Human factor D (purified from human serum, Complement Technology, Inc.) at 80 nM final concentration is incubated with test compound at various concentrations for 5 minutes at room temperature in 50 mM Tris, 1M NaCl, pH 7.5. A synthetic substrate Z-L-Lys-SBzl and DTNB (Ellman's reagent) are added to final concentrations of 100 µM each. The increase in color is recorded at OD405 nm in a microplate in kinetic mode over 30 minutes with 30 second time points in a […]. IC50 values are calculated by non-linear regression from the percentage of inhibition of complement factor D activity as a function of test compound concentration.

The structures appear in SMILES notation.

Chain of Complement factor D (P00746 whole entry): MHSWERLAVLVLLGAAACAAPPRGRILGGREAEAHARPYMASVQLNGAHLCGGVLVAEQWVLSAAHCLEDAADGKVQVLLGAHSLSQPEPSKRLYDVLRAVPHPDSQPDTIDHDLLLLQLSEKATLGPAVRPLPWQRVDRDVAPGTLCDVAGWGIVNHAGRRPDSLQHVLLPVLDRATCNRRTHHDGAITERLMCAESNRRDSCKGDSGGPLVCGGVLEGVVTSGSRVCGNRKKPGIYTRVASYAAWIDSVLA

In the case of `CC(=O)c1cn(CC(=O)N2[C@@H]3C[C@@H]3C[C@H]2C(=O)Nc2cccc(-c3ccccc3Cl)c2F)c2ccc(Oc3ncc(Br)cn3)cc12`, the IC50 was less than 1000 nM.
For `CC(=O)c1cn(CC(=O)N2C[C@H](F)C[C@H]2C(=O)Nc2cccc(Br)n2)c2ccc(Oc3ncc(Br)cn3)cc12`, the IC50 is less than 1000 nM.
